# Assay results reported in PubChem BioAssay (NCI).
#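 GI50 is the concentration that inhibits growth by half. TGI marks complete inhibition of growth.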
# Experiments:
# Assay in all cases: inhibition of tumour cell growth, NCI panel, 384-well format
# [1] = system: OVCAR-4 ovarian
# [2] = system: NCI/ADR-RES ovarian
# [3] = system: RXF 393 renal
# [4] = system: PC-3 prostate
# [5] = system: RPMI-8226 leukemia
# [6] = system: 786-0 renal
# [7] = system: HCT-116 colon
# [8] = system: HOP-62 NSCLC
# [9] = system: IGROV1 ovarian
# [10] = system: HS 578T breast
# [11] = system: NCI-H460 NSCLC
# [12] = system: T-47D breast
# [13] = system: HCT-15 colon
# [14] = system: SK-MEL-5 melanoma
# [15] = system: HCC-2998 colon
# [16] = system: MDA-MB-468 breast
# [17] = system: U251 glioblastoma
# [18] = system: NCI-H322M lung
# [19] = system: NCI-H23 lung
# [20] = system: SW-620 colon
# [21] = system: UO-31 renal
# [22] = system: SNB-19 CNS
# [23] = system: TK-10 renal
# [24] = system: CCRF-CEM leukemia
# [25] = system: LOX IMVI melanoma
# [26] = system: MALME-3M melanoma
# [27] = system: NCI-H522 lung
# [28] = system: OVCAR-8 ovarian
# [29] = system: MCF7 breast
# [30] = system: SF-539 CNS
# [31] = system: DU-145 prostate
# [32] = system: HL-60(TB) leukemia
# [33] = system: EKVX NSCLC
# [34] = system: UACC-62 melanoma
# [35] = system: SF-295 CNS
# [36] = system: KM12 colon
# [37] = system: M14 melanoma
# [38] = system: SR leukemia
# [39] = system: OVCAR-3 ovarian
# [40] = system: HOP-92 NSCLC
# [41] = system: SNB-75 CNS
# [42] = system: SF-268 CNS
# [43] = system: K-562 leukemia
# [44] = system: SK-MEL-28 melanoma
# [45] = system: CAKI-1 renal
# [46] = system: A549 NSCLC
# [47] = system: BT-549 breast
# [48] = system: COLO 205 colon
# [49] = system: SN12C renal
# [50] = system: A498 renal
# [51] = system: MDA-MB-231 breast
# [52] = system: MDA-MB-435 melanoma
# [53] = system: NCI-H226 lung
# [54] = system: MOLT-4 leukemia
# [55] = system: ACHN renal
# [56] = system: SK-OV-3 ovarian
# [57] = system: HT29 colon
# [58] = system: UACC-257 melanoma
compound,measurement,setting,value
O=c1cc(-c2cccc3c2Sc2ccccc2S3)oc(N2CCOCC2)c1,GI50,[1],12.9 µM
same,TGI,[1],25.6 µM
same,GI50,[2],11.1 µM
same,TGI,[2],23.2 µM
same,GI50,[3],4.89 µM
same,TGI,[3],17.6 µM
same,GI50,[4],6.39 µM
same,TGI,[4],19.3 µM
same,GI50,[5],3.35 µM
same,TGI,[5],13.9 µM
same,GI50,[6],10.6 µM
same,TGI,[6],22.6 µM
same,GI50,[7],9.36 µM
same,TGI,[7],21.6 µM
same,GI50,[8],13.6 µM
same,TGI,[8],26.6 µM
same,GI50,[9],7.75 µM
same,TGI,[9],20.2 µM
same,GI50,[10],6.58 µM
same,TGI,[10],18.5 µM
same,GI50,[11],14.4 µM
same,TGI,[11],28 µM
same,GI50,[12],10.1 µM
same,TGI,[12],21.8 µM
same,GI50,[13],7.02 µM
same,TGI,[13],19.8 µM
same,GI50,[14],10.7 µM
same,TGI,[14],22.7 µM
same,GI50,[15],2980 nM
same,TGI,[15],11.6 µM
same,GI50,[16],8.61 µM
same,TGI,[16],20.7 µM
same,GI50,[17],12.7 µM
same,TGI,[17],25.5 µM
same,GI50,[18],11 µM
same,TGI,[18],23.1 µM
same,GI50,[19],16 µM
same,TGI,[19],29.6 µM
same,GI50,[20],15.9 µM
same,TGI,[20],29.6 µM
same,GI50,[21],6.91 µM
same,TGI,[21],20.2 µM
same,GI50,[22],13.9 µM
same,TGI,[22],26.9 µM
same,GI50,[23],12 µM
same,TGI,[23],24.4 µM
same,GI50,[24],7.99 µM
same,TGI,[24],20.5 µM
same,GI50,[25],12.9 µM
same,TGI,[25],25.6 µM
same,GI50,[26],6.31 µM
same,TGI,[26],19.2 µM
same,GI50,[27],12.4 µM
same,TGI,[27],24.9 µM
same,GI50,[28],12.8 µM
same,TGI,[28],25.7 µM
same,GI50,[29],6.98 µM
same,TGI,[29],19.7 µM
same,GI50,[30],12.2 µM
same,TGI,[30],24.9 µM
same,GI50,[31],12.9 µM
same,TGI,[31],25.7 µM
same,GI50,[32],1520 nM
same,TGI,[32],3.17 µM
same,GI50,[33],11.1 µM
same,TGI,[33],23.2 µM
same,GI50,[34],10.4 µM
same,TGI,[34],22.3 µM
same,GI50,[35],13.2 µM
same,TGI,[35],26.1 µM
same,GI50,[36],5.64 µM
same,TGI,[36],17.7 µM
same,GI50,[37],10.6 µM
same,TGI,[37],22.5 µM
same,GI50,[38],2530 nM
same,TGI,[38],4.95 µM
same,GI50,[39],12.7 µM
same,TGI,[39],25.5 µM
same,GI50,[40],10.1 µM
same,TGI,[40],21.7 µM
same,GI50,[41],10.7 µM
same,TGI,[41],22.7 µM
same,GI50,[42],12.1 µM
same,TGI,[42],24.7 µM
same,GI50,[43],5.04 µM
same,TGI,[43],16.3 µM
same,GI50,[44],10.4 µM
same,TGI,[44],22.2 µM
same,GI50,[45],5.15 µM
same,TGI,[45],18.4 µM
same,GI50,[46],11.4 µM
same,TGI,[46],23.8 µM
same,GI50,[47],7.8 µM
same,TGI,[47],20.5 µM
same,GI50,[48],15.4 µM
same,TGI,[48],28.9 µM
same,GI50,[49],11.5 µM
same,TGI,[49],23.8 µM
same,GI50,[50],4.26 µM
same,TGI,[50],15.3 µM
same,GI50,[51],11.3 µM
same,TGI,[51],23.5 µM
same,GI50,[52],5.13 µM
same,TGI,[52],16.3 µM
same,GI50,[53],12.7 µM
same,TGI,[53],25.3 µM
same,GI50,[54],7.2 µM
same,TGI,[54],19.9 µM
same,GI50,[55],14.8 µM
same,TGI,[55],28.1 µM
same,GI50,[56],15.2 µM
same,TGI,[56],28.7 µM
same,GI50,[57],12 µM
same,TGI,[57],24.7 µM
same,GI50,[58],10.2 µM
same,TGI,[58],21.9 µM
